Results from patent publication EP3002287B1, “Thiochromeno[2,3-c]quinolin-12-one derivatives and their use as topoisomerase inhibitors” (National Defense Medical Center, priority 2014, dated 2016).

Columns and labels:
[1] = test system: DU-145; assay: MTT assay for cell cytotoxicity; format: cell-based, human; settings: Homo sapiens, 72 h, at least three independent experiments, read-out: MTT assay (IC50 ± SD) DU-145
Method in brief: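 Seeded cells pre-incubated 24 h, then treated 72 h with 0.15–15 µM compound in RPMI-1640/5% FBS at 37 °C. MTT (1 mg/mL) added for 4 h, formazan dissolved in DMSO, absorbance at 560 nm; IC50 from mean of ≥3 independent experiments.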

[2] = test system: PC-3; assay: MTT assay for cell cytotoxicity; format: cell-based, human; settings: Homo sapiens, 72 h, at least three independent experiments, read-out: MTT assay (IC50 ± SD) PC-3
[3] = test system: RPMI-8226; assay: NCI in vitro 60-cell drug screen (SRB assay); format: cell-based; settings: RPMI-8226 (Leukemia); 10^-5 molar concentration; 48 hours
[4] = test system: SR; assay: NCI in vitro 60-cell drug screen (SRB assay); format: cell-based; settings: SR (Leukemia); 10^-5 molar concentration; 48 hours
[5] = test system: HOP-62; assay: NCI in vitro 60-cell drug screen (SRB assay); format: cell-based; settings: HOP-62 (Non-small cell lung cancer); 10^-5 molar concentration; 48 hours
[6] = test system: HOP-92; assay: NCI in vitro 60-cell drug screen (SRB assay); format: cell-based; settings: HOP-92 (Non-small cell lung cancer); 10^-5 molar concentration; 48 hours
[7] = test system: NCI-H322M; assay: NCI in vitro 60-cell drug screen (SRB assay); format: cell-based; settings: NCI-H322M (Non-small cell lung cancer); 10^-5 molar concentration; 48 hours
[8] = test system: HCC-2998; assay: NCI in vitro 60-cell drug screen (SRB assay); format: cell-based; settings: HCC-2998 (Colon cancer); 10^-5 molar concentration; 48 hours
[9] = test system: HT29; assay: NCI in vitro 60-cell drug screen (SRB assay); format: cell-based; settings: HT29 (Colon cancer); 10^-5 molar concentration; 48 hours
[10] = test system: KM12; assay: NCI in vitro 60-cell drug screen (SRB assay); format: cell-based; settings: KM12 (Colon cancer); 10^-5 molar concentration; 48 hours
[11] = test system: SF-295; assay: NCI in vitro 60-cell drug screen (SRB assay); format: cell-based; settings: SF-295 (CNS cancer); 10^-5 molar concentration; 48 hours
[12] = test system: SNB-19; assay: NCI in vitro 60-cell drug screen (SRB assay); format: cell-based; settings: SNB-19 (CNS cancer); 10^-5 molar concentration; 48 hours
[13] = test system: SNB-75; assay: NCI in vitro 60-cell drug screen (SRB assay); format: cell-based; settings: SNB-75 (CNS cancer); 10^-5 molar concentration; 48 hours
[14] = test system: LOX IMVI; assay: NCI in vitro 60-cell drug screen (SRB assay); format: cell-based; settings: LOX IMVI (Melanoma); 10^-5 molar concentration; 48 hours
[15] = test system: MALME-3M; assay: NCI in vitro 60-cell drug screen (SRB assay); format: cell-based; settings: MALME-3M (Melanoma); 10^-5 molar concentration; 48 hours
[16] = test system: M14; assay: NCI in vitro 60-cell drug screen (SRB assay); format: cell-based; settings: M14 (Melanoma); 10^-5 molar concentration; 48 hours
[17] = test system: SK-MEL-28; assay: NCI in vitro 60-cell drug screen (SRB assay); format: cell-based; settings: SK-MEL-28 (Melanoma); 10^-5 molar concentration; 48 hours
[18] = test system: UACC-257; assay: NCI in vitro 60-cell drug screen (SRB assay); format: cell-based; settings: UACC-257 (Melanoma); 10^-5 molar concentration; 48 hours
[19] = test system: OVCAR-8; assay: NCI in vitro 60-cell drug screen (SRB assay); format: cell-based; settings: OVCAR-8 (Ovarian cancer); 10^-5 molar concentration; 48 hours
[20] = test system: CAKI-1; assay: NCI in vitro 60-cell drug screen (SRB assay); format: cell-based; settings: CAKI-1 (Renal cancer); 10^-5 molar concentration; 48 hours
[21] = test system: SN12C; assay: NCI in vitro 60-cell drug screen (SRB assay); format: cell-based; settings: SN12C (Renal cancer); 10^-5 molar concentration; 48 hours
[22] = test system: TK-10; assay: NCI in vitro 60-cell drug screen (SRB assay); format: cell-based; settings: TK-10 (Renal cancer); 10^-5 molar concentration; 48 hours
[23] = test system: UO-31; assay: NCI in vitro 60-cell drug screen (SRB assay); format: cell-based; settings: UO-31 (Renal cancer); 10^-5 molar concentration; 48 hours
[24] = test system: PC-3; assay: NCI in vitro 60-cell drug screen (SRB assay); format: cell-based; settings: PC-3 (Prostate cancer); 10^-5 molar concentration; 48 hours
[25] = test system: MDA-MB-231/ATCC; assay: NCI in vitro 60-cell drug screen (SRB assay); format: cell-based; settings: MDA-MB-231/ATCC (Breast cancer); 10^-5 molar concentration; 48 hours
[26] = test system: HS 578T; assay: NCI in vitro 60-cell drug screen (SRB assay); format: cell-based; settings: HS 578T (Breast cancer); 10^-5 molar concentration; 48 hours
[27] = test system: MDA-MB-486; assay: NCI in vitro 60-cell drug screen (SRB assay); format: cell-based; settings: MDA-MB-486 (Breast cancer); 10^-5 molar concentration; 48 hours
[28] = test system: 60 cell lines; assay: NCI in vitro 60-cell drug screen (SRB assay), whole panel statistics; settings: mean over the cell panel; 10^-5 molar concentration; 48 hours

## O=c1c2cc(Cl)ccc2sc2c(N3CCN(c4ccccc4)CC3)nc3ccccc3c12 [Compound 12, 10-Chloro-6-(4-phenylpiperazin-1-yl)-12H-thiochromeno[2,3-c] quinolin-12-one]
[1]
  IC50: > 15 µM
[2]
  IC50: > 15 µM
[3]
  Growth percent: 99.93%
[4]
  Growth percent: 103.11%
[5]
  Growth percent: 86.00%
[6]
  Growth percent: 81.27%
[7]
  Growth percent: 84.41%
[8]
  Growth percent: 105.23%
[9]
  Growth percent: 99.94%
[10]
  Growth percent: 113.15%
[11]
  Growth percent: 99.23%
[12]
  Growth percent: 105.57%
[13]
  Growth percent: 94.73%
[14]
  Growth percent: 95.15%
[15]
  Growth percent: 121.84%
[16]
  Growth percent: 104.02%
[17]
  Growth percent: 104.22%
[18]
  Growth percent: 93.68%
[19]
  Growth percent: 90.34%
[20]
  Growth percent: 97.83%
[21]
  Growth percent: 102.66%
[22]
  Growth percent: 112.45%
[23]
  Growth percent: 63.85%
[24]
  Growth percent: 90.66%
[25]
  Growth percent: 94.34%
[26]
  Growth percent: 85.20%
[27]
  Growth percent: 86.34%
[28]
  Growth percent, Mean: 99.30%

## O=c1c2cc(Cl)ccc2sc2c(N3CCOCC3)nc3ccccc3c12 [Compound 13, 10-Chloro-6-morpholino-12H-thiochromeno[2,3-c]quinolin-12-one]
[1]
  IC50: > 15 µM
[2]
  IC50: > 15 µM
[3]
  Growth percent: 89.54%
[4]
  Growth percent: 88.91%
[5]
  Growth percent: 70.77%
[6]
  Growth percent: 60.43%
[7]
  Growth percent: 88.41%
[8]
  Growth percent: 108.75%
[9]
  Growth percent: 83.73%
[10]
  Growth percent: 88.68%
[11]
  Growth percent: 93.62%
[12]
  Growth percent: 99.37%
[13]
  Growth percent: 76.88%
[14]
  Growth percent: 89.82%
[15]
  Growth percent: 118.84%
[16]
  Growth percent: 110.35%
[17]
  Growth percent: 111.28%
[18]
  Growth percent: 110.91%
[19]
  Growth percent: 83.66%
[20]
  Growth percent: 90.00%
[21]
  Growth percent: 96.81%
[22]
  Growth percent: 86.24%
[23]
  Growth percent: 73.11%
[24]
  Growth percent: 79.80%
[25]
  Growth percent: 71.53%
[26]
  Growth percent: 83.27%
[27]
  Growth percent: 39.67%
[28]
  Growth percent, Mean: 90.52%
